# In US20250170114A1, “METHODS OF TREATMENT USING T-TYPE CALCIUM CHANNEL MODULATORS” (Praxis Precision Medicines, Inc., priority 2022, published 2025):
# Tested on: participants with ET
# Assay: Phase 2 trial: treatment-emergent adverse events (TEAEs)
# Assay type: in vivo
# Settings: for SOC Nervous System Disorders / SOC Psychiatric Disorders / SOC Vascular Disorders / Any TEAE / PT Cognitive disorder / PT Constipation / PT Dizziness / PT Fatigue / PT Insomnia / SOC Gastrointestinal Disorders / SOC General Disorders and Administration Site Conditions / SOC Musculoskeletal and Connective Tissue Disorders: Part B
# Description: Part A of the clinical trial was open-label and assessed the safety and tolerability of the study drug, as well as the overall magnitude and pattern of change in ET severity.
# Part B of the clinical trial consisted of both an open-label titration phase and a randomized, double-blind, placebo-controlled withdrawal phase. Part B assessed the safety and tolerability of the study drug, as well as the overall magnitude and pattern of change in ET severity and the duration of that effect. […] In the randomized, double-blind, placebo-controlled withdrawal phase, participants were either maintained on their final open-label dose or switched to placebo for an additional 14 days (Days 43 to 56).
# Key safety measures included clinical laboratory evaluations, 12-lead ECG, C-SSRS, and vital signs. Key efficacy assessments included the TETRAS Performance subscale, TETRAS Upper Limb using accelerometry, CGI, and PGI-C. Blood samples were obtained for the determination of study drug plasma concentrations using a validated bioanalytical method and may also be used for method development and/or metabolite characterization.
# On Day 1, participants received a 20 mg dose of study drug on an empty stomach (at least 1 hour before breakfast). Participants remained in a clinical setting under medical observation for approximately 6 hours. TETRAS Performance assessments were performed before dosing and 6 hours (±2) post-dose. For dosing on Day 2 through Day 41, participants were instructed to dose QAM at least 1 hour before breakfast at home. Participants continued taking study drug 20 mg QAM at home through Day 3. […] On Day 4, participants escalated to 40 mg QAM through Day 7, when they returned to the clinic for safety assessments and efficacy testing. On Day 8, participants escalated to 60 mg QAM through Day 14. […] On Day 15, participants escalated to 80 mg QAM through Day 21, when they returned to the clinic for safety assessments and efficacy testing. On Day 22, participants escalated to 100 mg QAM through Day 28. […] On Day 29, participants escalated to 120 mg QAM through Day 42, when they returned to the clinic for safety assessments and efficacy testing. The dose on Day 42 was taken in the clinic. On Day 35, participants received a telephone call from site staff to inquire about AEs and concomitant medications. On Day 41, participants completed a TETRAS Performance Upper Limb assessment via a telehealth visit. […] Participants could only change to a lower dose level once, and no dose changes were allowed to occur after Day 36.
# In both phases, key safety measures included clinical laboratory evaluations, 12-lead ECG, C-SSRS, and vital signs. Key efficacy assessments included the TETRAS Performance subscale, TETRAS Upper Limb using accelerometry, CGI, PGI-C, TETRAS ADL Subscale, QUEST, BDI-II, and BAI. Blood samples were obtained for the determination of study drug and metabolite plasma concentrations.
# [1] = open-label titration phase of Part B
# [2] = randomized-withdrawal phase of Part B, participants receiving study drug
smiles,measurement,setting,value
CC(C)(C)NC(=O)CN1CCC(CNC(=O)c2cc(F)cc(Cl)c2)CC1.Cl [Study drug],SOC Nervous System Disorders,"40 mg, N = 15",4 n (%)
same,SOC Psychiatric Disorders,"40 mg, N = 15",2 n (%)
same,SOC Vascular Disorders,"40 mg, N = 15",0 n (%)
same,Any TEAE,"60 mg, N = 12",8 n (%)
same,PT Cognitive disorder,"60 mg, N = 12",1 n (%)
same,PT Constipation,"60 mg, N = 12",0 n (%)
same,PT Dizziness,"60 mg, N = 12",2 n (%)
same,PT Fatigue,"60 mg, N = 12",2 n (%)
same,PT Insomnia,"60 mg, N = 12",0 n (%)
same,SOC Gastrointestinal Disorders,"60 mg, N = 12",0 n (%)
same,SOC General Disorders and Administration Site Conditions,"60 mg, N = 12",3 n (%)
same,SOC Musculoskeletal and Connective Tissue Disorders,"60 mg, N = 12",2 n (%)
same,SOC Nervous System Disorders,"60 mg, N = 12",8 n (%)
same,SOC Psychiatric Disorders,"60 mg, N = 12",1 n (%)
same,SOC Vascular Disorders,"60 mg, N = 12",2 n (%)
same,Any TEAE,"80 mg, N = 10",4 (40.0) n (%)
same,PT Cognitive disorder,"80 mg, N = 10",0 n (%)
same,PT Constipation,"80 mg, N = 10",1 (10.0) n (%)
same,PT Dizziness,"80 mg, N = 10",0 n (%)
same,PT Fatigue,"80 mg, N = 10",0 n (%)
same,PT Insomnia,"80 mg, N = 10",0 n (%)
same,SOC Gastrointestinal Disorders,"80 mg, N = 10",2 (20.0) n (%)
same,SOC General Disorders and Administration Site Conditions,"80 mg, N = 10",0 n (%)
same,SOC Musculoskeletal and Connective Tissue Disorders,"80 mg, N = 10",0 n (%)
same,SOC Nervous System Disorders,"80 mg, N = 10",2 (20.0) n (%)
same,SOC Psychiatric Disorders,"80 mg, N = 10",0 n (%)
same,SOC Vascular Disorders,"80 mg, N = 10",0 n (%)
same,Any TEAE,"100 mg, N = 9",1 (11.1) n (%)
same,PT Cognitive disorder,"100 mg, N = 9",0 n (%)
same,PT Constipation,"100 mg, N = 9",1 (11.1) n (%)
same,PT Dizziness,"100 mg, N = 9",0 n (%)
same,PT Fatigue,"100 mg, N = 9",0 n (%)
same,PT Insomnia,"100 mg, N = 9",0 n (%)
same,SOC Gastrointestinal Disorders,"100 mg, N = 9",1 (11.1) n (%)
same,SOC General Disorders and Administration Site Conditions,"100 mg, N = 9",0 n (%)
same,SOC Musculoskeletal and Connective Tissue Disorders,"100 mg, N = 9",0 n (%)
same,SOC Nervous System Disorders,"100 mg, N = 9",0 n (%)
same,SOC Psychiatric Disorders,"100 mg, N = 9",0 n (%)
same,SOC Vascular Disorders,"100 mg, N = 9",0 n (%)
same,Any TEAE,"120 mg, N = 9",3 (33.3) n (%)
same,PT Cognitive disorder,"120 mg, N = 9",0 n (%)
same,PT Constipation,"120 mg, N = 9",1 (11.1) n (%)
same,PT Dizziness,"120 mg, N = 9",0 n (%)
same,PT Fatigue,"120 mg, N = 9",0 n (%)
same,PT Insomnia,"120 mg, N = 9",0 n (%)
same,SOC Gastrointestinal Disorders,"120 mg, N = 9",1 (11.1) n (%)
same,SOC General Disorders and Administration Site Conditions,"120 mg, N = 9",0 n (%)
same,SOC Musculoskeletal and Connective Tissue Disorders,"120 mg, N = 9",0 n (%)
same,SOC Nervous System Disorders,"120 mg, N = 9",1 (11.1) n (%)
same,SOC Psychiatric Disorders,"120 mg, N = 9",1 (11.1) n (%)
same,SOC Vascular Disorders,"120 mg, N = 9",0 n (%)
same,Any TEAE,"Overall, N = 17",15 n (%)
same,PT Cognitive disorder,"Overall, N = 17",4 n (%)
same,PT Constipation,"Overall, N = 17",6 n (%)
same,PT Dizziness,"Overall, N = 17",6 n (%)
same,PT Fatigue,"Overall, N = 17",3 n (%)
same,PT Insomnia,"Overall, N = 17",3 n (%)
same,SOC Gastrointestinal Disorders,"Overall, N = 17",8 n (%)
same,SOC General Disorders and Administration Site Conditions,"Overall, N = 17",5 n (%)
same,SOC Musculoskeletal and Connective Tissue Disorders,"Overall, N = 17",3 n (%)
same,SOC Nervous System Disorders,"Overall, N = 17",12 n (%)
same,SOC Psychiatric Disorders,"Overall, N = 17",4 n (%)
same,SOC Vascular Disorders,"Overall, N = 17",2 n (%)
same,severity of treatment emergent adverse events (TEAEs),Phase 2 trial overall,mild to moderate
same,discontinuation of participants during the titration period,accelerated titration regimen,a third
same,overall safety and tolerability,doses up to 120 mg,generally safe and well tolerated
same,Drug-related TEAE cognitive disorder,[1],4 participants
same,Drug-related TEAE dizziness,[1],6 participants
same,Drug-related TEAE paraesthesia,[1],2 participants
same,participants experiencing TEAEs considered related to study drug,[1],70.6%
same,participants who experienced at least 1 TEAE,[1],88.2%
same,serious adverse event (SAE) experienced,"open-label titration phase of Part B, considered unrelated to study drug",One mild SAE of cyst
same,participants who experienced TEAEs,"randomized withdrawal phase of Part B, study drug group",16.7%
same,ongoing AE constipation that had emerged during open-label titration,[2],3 participants
same,ongoing AE photosensitivity/photophobia that had emerged during open-label titration,[2],2 participants
